Assays:
[1] = Ring tensiometer
[2] = xn = mol fraction of the nth substance listed; conditions: Ring tensiometer

CCCO [propan-1-ol]
[1]
Conditions | surface tension liquid-gas [mN/m]
288.15 K | 23.24
298.15 K | 22.5
308.15 K | 21.39
318.15 K | 20.88
328.15 K | 20.18

C[S+](C)[O-] [dimethyl sulfoxide] + CCCCO
surface tension liquid-gas [mN/m], [2]
Conditions | 288.15 K | 298.15 K | 308.15 K | 318.15 K | 328.15 K
x2 = 0.0373 | 39.63 | 38.43 | 38.16 | 36.84 | 36.19
x2 = 0.1042 | 36.3 | 35.44 | 34.43 | 33.54 | 32.99
x2 = 0.2136 | 32.33 | 32.03 | 30.37 | 30.79 | 29.37
x2 = 0.3353 | 30.13 | 29.72 | 28.82 | 28.06 | 27.19
x2 = 0.449 | 28.57 | 27.92 | 27.16 | 26.61 | 25.8
x2 = 0.5461 | 27.41 | 26.74 | 25.98 | 25.33 | 24.35
x2 = 0.614 | 26.65 | 26.06 | 25.27 | 24.55 | 23.85
x2 = 0.6643 | 26.18 | 25.55 | 24.84 | 23.98 | 23.3
x2 = 0.703 | 25.77 | 25.17 | 24.41 | 23.6 | 22.56
x2 = 0.8512 | 25.14 | 24.33 | 23.41 | 22.28 | 20.86
x2 = 0.9521 | 24.57 | 23.98 | 22.68 | 21.94 | 20.55

CCCCCCO [hexan-1-ol] + C[S+](C)[O-]
surface tension liquid-gas [mN/m], [2]
Conditions | 288.15 K | 298.15 K | 308.15 K | 318.15 K | 328.15 K
x1 = 0.0276 | 38.76 | 37.64 | 37.53 | 36.73 | 35.16
x1 = 0.0786 | 34.22 | 33.57 | 34.04 | 33.39 | 32.7
x1 = 0.1661 | 31.83 | 30.74 | 30.98 | 30.06 | 28.96
x1 = 0.2701 | 29.83 | 29.35 | 28.94 | 28.16 | 27.55
x1 = 0.3741 | 28.72 | 27.95 | 27.68 | 26.94 | 26.24
x1 = 0.4687 | 27.91 | 27.29 | 26.7 | 26.16 | 25.36
x1 = 0.5385 | 27.47 | 26.83 | 26.27 | 25.57 | 25.04
x1 = 0.5921 | 26.99 | 26.24 | 25.85 | 25.07 | 24.29
x1 = 0.6345 | 26.53 | 26.06 | 25.62 | 24.72 | 24.02
x1 = 0.7511 | 26 | 25.85 | 25.2 | 24.44 | 23.84
x1 = 0.9512 | 25.48 | 25.1 | 24.75 | 24.14 | 23.12

C[S+](C)[O-] [dimethyl sulfoxide] + CCCO
surface tension liquid-gas [mN/m], [2]
Conditions | 288.15 K | 298.15 K | 308.15 K | 318.15 K | 328.15 K
x2 = 0.0454 | 40.3 | 39.39 | 37.85 | 36.89 | 36.64
x2 = 0.1248 | 36.24 | 35.91 | 34.14 | 33.79 | 33.37
x2 = 0.2498 | 33.09 | 32.37 | 31.06 | 30.95 | 30.07
x2 = 0.3821 | 30.1 | 29.48 | 28.96 | 28.33 | 27.01
x2 = 0.4997 | 28.34 | 27.81 | 27.06 | 26.41 | 25.5
x2 = 0.5959 | 27.14 | 26.34 | 25.67 | 25.02 | 24.15
x2 = 0.661 | 26.33 | 25.7 | 24.6 | 24.15 | 23.35
x2 = 0.7081 | 25.71 | 25.17 | 24.41 | 23.65 | 22.77
x2 = 0.7437 | 25.25 | 24.74 | 23.97 | 23.15 | 22.45
x2 = 0.8523 | 24.28 | 23.5 | 22.89 | 22.34 | 21.64
x2 = 0.9519 | 23.55 | 22.58 | 22.13 | 21.5 | 20.28

CCCCO [butan-1-ol]
[1]
Conditions | surface tension liquid-gas [mN/m]
288.15 K | 24.28
298.15 K | 23.48
308.15 K | 22.4
318.15 K | 21.64
328.15 K | 20.56

CCCCCCO [hexan-1-ol]
[1]
Conditions | surface tension liquid-gas [mN/m]
288.15 K | 25.38
298.15 K | 24.51
308.15 K | 23.86
318.15 K | 23.02
328.15 K | 22.33

C[S+](C)[O-] [dimethyl sulfoxide]
[1]
Conditions | surface tension liquid-gas [mN/m]
288.15 K | 43.68
298.15 K | 42.18
308.15 K | 41.11
318.15 K | 39.99
328.15 K | 38.72

From the NIST ThermoML archive (doi:10.1016/j.jct.2013.04.009)
